Experimental data: ChEMBL document CHEMBL1201862, “PubChem BioAssay data set” (2004)
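Five compound concentrations were applied to cells in 96-well plates for 48 hours; endpoints were derived by simple linear interpolation of the resulting dose-response curve. Abbreviation: GI50, concentration required for 50% inhibition of growth.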 Calls of active or inactive are those of the source. Cut-off read from the data, not from the text of the source: active = GI50 up to about 1.1 µM and inactive = higher.

Experiments:
Assay in all cases: DTP human tumour cell line panel, 48 h
[1] = tested on: A498
[2] = tested on: ACHN
[3] = tested on: CCRF-CEM
[4] = tested on: DMS-114
[5] = tested on: HCT-116
[6] = tested on: HCT-15
[7] = tested on: HL-60
[8] = tested on: KM12
[9] = tested on: M14
[10] = tested on: Malme-3M
[11] = tested on: SK-MEL-28
[12] = tested on: SK-OV-3
[13] = tested on: SN12C
[14] = tested on: SW-620
[15] = tested on: TK-10
[16] = tested on: UO-31
[17] = tested on: MCF7
[18] = tested on: NCI/ADR-RES
[19] = tested on: PC-3
[20] = tested on: T47D

SMILES: Cc1cccc2c1c1ccc3c(c1n2C)C(=O)C=CC3=O
- GI50 [1]: 27.4 µM (inactive)
- GI50 [2]: 7.73 µM (inactive)
- GI50 [3]: 0.468 µM (active)
- GI50 [4]: 6.35 µM (inactive)
- GI50 [5]: 5.86 µM (inactive)
- GI50 [6]: 5.18 µM
- GI50 [7]: 0.521 µM (active)
- GI50 [8]: 13.2 µM (inactive)
- GI50 [9]: 6.22 µM (inactive)
- GI50 [10]: 4.33 µM (inactive)
- GI50 [11]: 9.71 µM (inactive)
- GI50 [12]: 20.1 µM (inactive)
- GI50 [13]: 6.17 µM (inactive)
- GI50 [14]: 2.03 µM (inactive)
- GI50 [15]: 2.79 µM (inactive)
- GI50 [16]: 3.4 µM (inactive)

SMILES: CC(=O)CC(=O)Nc1ccc(OS(N)(=O)=O)cc1
- GI50 [1]: > 100 µM (inactive)
- GI50 [2]: > 100 µM (inactive)
- GI50 [3]: > 100 µM (inactive)
- GI50 [4]: > 100 µM (inactive)
- GI50 [5]: > 100 µM (inactive)
- GI50 [6]: > 100 µM
- GI50 [7]: > 100 µM (inactive)
- GI50 [8]: > 100 µM (inactive)
- GI50 [9]: > 100 µM (inactive)
- GI50 [10]: > 100 µM (inactive)
- GI50 [11]: > 100 µM (inactive)
- GI50 [12]: > 100 µM (inactive)
- GI50 [13]: > 100 µM (inactive)
- GI50 [14]: > 100 µM (inactive)
- GI50 [15]: > 100 µM (inactive)
- GI50 [16]: > 100 µM (inactive)

SMILES: CCOC(=O)COc1ccccc1/C=C1\CCC(CN(C)C)C1=O (centres undefined)
- GI50 [1]: 17.2 µM (inactive)
- GI50 [2]: 13.9 µM (inactive)
- GI50 [3]: 1.1 µM (active)
- GI50 [4]: 10.3 µM (inactive)
- GI50 [5]: 3.4 µM (inactive)
- GI50 [6]: 3.24 µM
- GI50 [7]: 0.607 µM (active)
- GI50 [8]: 3.71 µM (inactive)
- GI50 [9]: 8.71 µM (inactive)
- GI50 [17]: 2.57 µM (inactive)
- GI50 [10]: 5.19 µM (inactive)
- GI50 [18]: 3.48 µM (inactive)
- GI50 [11]: 2.62 µM (inactive)
- GI50 [12]: 17.5 µM (inactive)
- GI50 [13]: 5.96 µM (inactive)
- GI50 [14]: 2.55 µM (inactive)
- GI50 [15]: 12.9 µM (inactive)
- GI50 [16]: 16.3 µM (inactive)

SMILES: C[C@]12CC[C@H](O)CC1=CC[C@@H]1C2CC[C@]2(C)C(=O)NC(=O)CC12 (some centres undefined)
- GI50 [1]: > 100 µM (inactive)
- GI50 [2]: > 100 µM (inactive)
- GI50 [3]: 35.4 µM (inactive)
- GI50 [4]: > 100 µM (inactive)
- GI50 [5]: 53.7 µM (inactive)
- GI50 [6]: > 100 µM
- GI50 [7]: > 100 µM (inactive)
- GI50 [8]: 35.5 µM (inactive)
- GI50 [9]: > 100 µM (inactive)
- GI50 [10]: 92.5 µM (inactive)
- GI50 [11]: > 100 µM (inactive)
- GI50 [12]: > 100 µM (inactive)
- GI50 [13]: 69 µM (inactive)
- GI50 [14]: 47.8 µM (inactive)
- GI50 [15]: > 100 µM (inactive)
- GI50 [16]: > 100 µM (inactive)

SMILES: C=C(c1ccccc1)[C@@]1(O)CCCC[C@H]1NC(c1ccccc1)c1ccccc1
- GI50 [1]: 13.9 µM (inactive)
- GI50 [2]: 11.7 µM (inactive)
- GI50 [3]: 4.34 µM (inactive)
- GI50 [4]: 9.64 µM (inactive)
- GI50 [5]: 7.93 µM (inactive)
- GI50 [6]: 10.9 µM
- GI50 [7]: 2.65 µM (inactive)
- GI50 [8]: 11.1 µM (inactive)
- GI50 [9]: 14 µM (inactive)
- GI50 [10]: 16.1 µM (inactive)
- GI50 [11]: 15.5 µM (inactive)
- GI50 [12]: 19.1 µM (inactive)
- GI50 [13]: 14 µM (inactive)
- GI50 [14]: 14.4 µM (inactive)
- GI50 [15]: 16.3 µM (inactive)
- GI50 [16]: 14.5 µM (inactive)

SMILES: CC(=O)C(CN(C(C)C)C(C)C)C(c1ccccc1)c1c(O)c2ccccc2oc1=O (centres undefined)
- GI50 [1]: > 100 µM (inactive)
- GI50 [2]: > 100 µM (inactive)
- GI50 [3]: > 100 µM (inactive)
- GI50 [4]: > 100 µM (inactive)
- GI50 [5]: > 100 µM (inactive)
- GI50 [6]: > 100 µM
- GI50 [7]: > 100 µM (inactive)
- GI50 [8]: > 100 µM (inactive)
- GI50 [9]: > 100 µM (inactive)
- GI50 [10]: > 100 µM (inactive)
- GI50 [11]: > 100 µM (inactive)
- GI50 [12]: > 100 µM (inactive)
- GI50 [13]: > 100 µM (inactive)
- GI50 [14]: > 100 µM (inactive)
- GI50 [15]: > 100 µM (inactive)
- GI50 [16]: > 100 µM (inactive)

SMILES: COc1c(CC=C(C)C)c(O)c(C(CC(C)C)c2c(O)c(CC=C(C)C)c(O)c(C(C)=O)c2O)c(O)c1C(C)=O (centres undefined)
- GI50 [1]: 0.0843 µM (active)
- GI50 [2]: 1.1 µM (active)
- GI50 [3]: 0.278 µM (active)
- GI50 [4]: 0.19 µM (active)
- GI50 [5]: 0.325 µM (active)
- GI50 [6]: 0.4 µM
- GI50 [7]: 0.767 µM (active)
- GI50 [8]: 0.998 µM (active)
- GI50 [9]: 1.43 µM (inactive)
- GI50 [17]: 0.385 µM (active)
- GI50 [10]: 0.638 µM (active)
- GI50 [18]: 0.729 µM (active)
- GI50 [19]: 0.305 µM (active)
- GI50 [11]: 0.695 µM (active)
- GI50 [12]: 2.08 µM (inactive)
- GI50 [13]: 0.469 µM (active)
- GI50 [14]: 0.48 µM (active)
- GI50 [20]: 0.385 µM (active)
- GI50 [15]: 1.03 µM (active)
- GI50 [16]: 3.08 µM (inactive)

SMILES: CC(=O)N1CCN(c2ccc(OCC3COC(Cn4ccnc4)(c4ccc(Cl)cc4Cl)O3)cc2)CC1 (centres undefined) [KETOCONAZOLE]
- GI50 [1]: 37 µM (inactive)
- GI50 [2]: 36.2 µM (inactive)
- GI50 [3]: 27.6 µM (inactive)
- GI50 [4]: 16 µM (inactive)
- GI50 [5]: 22.3 µM (inactive)
- GI50 [6]: 25.8 µM
- GI50 [7]: 20.1 µM (inactive)
- GI50 [8]: 30.6 µM (inactive)
- GI50 [9]: 22.4 µM (inactive)
- GI50 [10]: 28.8 µM (inactive)
- GI50 [11]: 34.6 µM (inactive)
- GI50 [12]: 55.8 µM (inactive)
- GI50 [13]: 52.4 µM (inactive)
- GI50 [14]: 48 µM (inactive)
- GI50 [15]: 37.8 µM (inactive)
- GI50 [16]: 25.8 µM (inactive)
